Counter-ions that a name gives are not always drawn.
Biological target: T1, S1P1 receptor (S1P1 expressing RH7777 membranes) (Homo sapiens, UniProt P21453)
T1 construct: expressed in transfected cells; host or cells: RH7777 cells (membranes)
Assay: S1P1 GTPγS assay
Type: biochemical
Conditions: tested in one of the above S1P1 assays (two GTPγS formats)
Procedure: The potencies and efficacies of the compounds of this invention for the S1P1 receptor can be determined by GTPγS assay performed on the human cloned receptor as described herein.
Membrane preparation for S1P1 GTPγS assay
All steps were performed at 4° C. Cells were homogenised within a glass Waring blender for 2 bursts of 15 secs in 200 mls of buffer (50 mM HEPES, 1 mM leupeptin, 25 μg/ml bacitracin, 1 mM EDTA, 1 mM PMSF, 2 μM pepstatin A). The blender was plunged into ice for 5 mins after the first burst and 10-40 mins after the final burst to allow foam to dissipate. The material was then spun at 500 g for 20 mins and the supernatant spun for 36 mins at 48,000 g. The pellet was resuspended in the same buffer as above but without PMSF and pepstatin A. The material was then forced through a 0.6 mm needle, made up to the required volume, (usually x4 the volume of the original cell pellet), aliquoted and stored frozen at −80° C.
S1P1 expressing RH7777 membranes (1.5 μg/well) membranes (1.5 μg/well) were homogenised by passing through a 23 G needle. These were then adhered to WGA-coated SPA beads (0.125 mg/well) in assay buffer (HEPES 20 mM, MgCl2 10 mM, NaCl 100 mM and pH adjusted to 7.4 using KOH 5M). GDP 10 μM FAC and saponin 90 μg/ml FAC were also added
After 30 minutes precoupling on ice, the bead and membrane suspension was dispensed into white Greiner polypropylene LV 384-well plates (5 μl/well), containing […] of compound. 5 μl/well [^35S]-GTPγS (0.5 nM for S1P1 or 0.3 nM for S1P3 final radioligand concentration) made in assay buffer was then added to the plates. The final assay cocktail (10.1 μl) was then sealed, spun on a centrifuge, then read immediately on a Viewlux instrument.
Alternatively, after 30 minutes precoupling on ice, the bead and membrane suspension was mixed with ^35S]-GTPγS (0.5 nM final radioligand concentration) in assay buffer (HEPES 20 mM, MgCl2 10 mM, NaCl 100 mM and pH adjusted to 7.4 using KOH 5M) in a 1:1 ratio. The bead, membrane and radioligand suspension was dispensed into white Greiner polypropylene low volume 384-well plates (10 μl/well), containing 0.1 μl of a solution of test compound in 100% DMSO. The final assay cocktail (10.1 μl) was then sealed, spun on a centrifuge, then read immediately on a Viewlux instrument.

T1 sequence (P21453 whole entry): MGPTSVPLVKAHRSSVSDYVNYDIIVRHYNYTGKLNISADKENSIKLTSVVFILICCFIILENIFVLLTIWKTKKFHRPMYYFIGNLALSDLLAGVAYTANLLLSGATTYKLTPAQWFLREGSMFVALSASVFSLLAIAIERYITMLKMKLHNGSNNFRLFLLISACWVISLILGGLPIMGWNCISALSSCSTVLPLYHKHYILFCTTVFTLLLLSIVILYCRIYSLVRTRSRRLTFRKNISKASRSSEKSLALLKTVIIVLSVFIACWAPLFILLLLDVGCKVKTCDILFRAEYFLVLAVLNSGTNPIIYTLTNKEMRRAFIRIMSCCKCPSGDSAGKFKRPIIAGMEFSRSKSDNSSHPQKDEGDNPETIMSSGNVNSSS

CCCOc1ccc(-c2nc(-c3ccc4c(c3)CCN(CC(O)CO)CC4)no2)cc1C#N (stereo not shown) [Example 51, 5-{3-[3-(2,3-dihydroxypropyl)-2,3,4,5-tetrahydro-1H-3-benzazepin-7-yl]-1,2,4-oxadiazol-5-yl}-2-(propyloxy)benzonitrile] and N#Cc1cc(-c2nc(-c3ccc4c(c3)CCN(CC(O)CO)CC4)no2)ccc1OC(CF)CF (stereo not shown) [Example 60, 5-{3-[3-(2,3-dihydroxypropyl)-2,3,4,5-tetrahydro-1H-3-benzazepin-7-yl]-1,2,4-oxadiazol-5-yl}-2-{[2-fluoro-1-(fluoromethyl)ethyl]oxy}benzonitrile] cannot be ordered by EC50: no more than 100 nM for the first, no more than 100 nM for the second.

CC(C)Nc1ccc(-c2nc(-c3ccc4c(c3)CCN(C(=O)CN)CC4)no2)cc1C#N [Example 52, 5-[3-(3-glycyl-2,3,4,5-tetrahydro-1H-3-benzazepin-7-yl)-1,2,4-oxadiazol-5-yl]-2-[(1-methylethyl)amino]benzonitrile] and CCCNc1ccc(-c2nc(-c3ccc4c(c3)CCN(C(=O)CN)CC4)no2)cc1C#N [Example 53, 5-[3-(3-glycyl-2,3,4,5-tetrahydro-1H-3-benzazepin-7-yl)-1,2,4-oxadiazol-5-yl]-2-(propylamino)benzonitrile] cannot be ordered by EC50: no more than 100 nM for the first, no more than 100 nM for the second.

N#Cc1cc(-c2nc(-c3ccc4c(c3)CCN(CC(O)CO)CC4)no2)ccc1N1CCC(F)C1 (stereo not shown) [Example 55, 5-{3-[3-(2,3-dihydroxypropyl)-2,3,4,5-tetrahydro-1H-3-benzazepin-7-yl]-1,2,4-oxadiazol-5-yl}-2-(3-fluoro-1-pyrrolidinyl)benzonitrile] and N#Cc1cc(-c2nc(-c3ccc4c(c3)CCN(C(=O)CN)CC4)no2)ccc1N1CCC(F)C1 (stereo not shown) [Example 57, 2-(3-fluoro-1-pyrrolidinyl)-5-[3-(3-glycyl-2,3,4,5-tetrahydro-1H-3-benzazepin-7-yl)-1,2,4-oxadiazol-5-yl]benzonitrile] cannot be ordered by EC50: no more than 1000 nM for the first, no more than 1000 nM for the second.

CC(C)Oc1ccc(-c2nc(-c3ccc4c(c3)CCN(C(=O)[C@H](N)[C@@H](C)O)CC4)no2)cc1C#N [Example 58, 5-[3-(3-D-allothreonyl-2,3,4,5-tetrahydro-1H-3-benzazepin-7-yl)-1,2,4-oxadiazol-5-yl]-2-[(1-methylethyl)oxy]benzonitrile] and CC(C)Oc1ccc(-c2nc(-c3ccc4c(c3)CCN(C(=O)[C@@H](N)[C@@H](C)O)CC4)no2)cc1C#N [Example 59, 2-[(1-methylethyl)oxy]-5-[3-(3-L-threonyl-2,3,4,5-tetrahydro-1H-3-benzazepin-7-yl)-1,2,4-oxadiazol-5-yl]benzonitrile] cannot be ordered by EC50: no more than 100 nM for the first, no more than 100 nM for the second.

CCOc1ccc(-c2nc(-c3ccc4c(c3)CCN(C(=O)CN)CC4)no2)cc1C#N [Example 61, 2-(ethyloxy)-5-[3-(3-glycyl-2,3,4,5-tetrahydro-1H-3-benzazepin-7-yl)-1,2,4-oxadiazol-5-yl]benzonitrile] and CCCOc1ccc(-c2nc(-c3ccc4c(c3)CCN(C(=O)CN)CC4)no2)cc1C#N [Example 62, 5-[3-(3-glycyl-2,3,4,5-tetrahydro-1H-3-benzazepin-7-yl)-1,2,4-oxadiazol-5-yl]-2-(propyloxy)benzonitrile] cannot be ordered by EC50: no more than 100 nM for the first, no more than 100 nM for the second.

CC(C)Oc1ccc(-c2nc(-c3ccc4c(c3)CCN(C(=O)CCCN)CC4)no2)cc1C#N [Example 63, 5-{3-[3-(4-aminobutanoyl)-2,3,4,5-tetrahydro-1H-3-benzazepin-7-yl]-1,2,4-oxadiazol-5-yl}-2-[(1-methylethyl)oxy]benzonitrile] and CNCCCC(=O)N1CCc2ccc(-c3noc(-c4ccc(OC(C)C)c(C#N)c4)n3)cc2CC1 [Example 83, 5-(3-{3-[4-(methylamino)butanoyl]-2,3,4,5-tetrahydro-1H-3-benzazepin-7-yl}-1,2,4-oxadiazol-5-yl)-2-[(1-methylethyl)oxy]benzonitrile] cannot be ordered by EC50: no more than 100 nM for the first, no more than 1000 nM for the second.

Cc1c(-c2noc(-c3ccc(OC(C)C)c(C#N)c3)n2)ccc2c1CCN(C(CO)CO)C2 [Example 65, 5-(3-{2-[2-hydroxy-1-(hydroxymethyl)ethyl]-5-methyl-1,2,3,4-tetrahydro-6-isoquinolinyl}-1,2,4-oxadiazol-5-yl)-2-[(1-methylethyl)oxy]benzonitrile] and Cc1c(-c2noc(-c3ccc(OC(C)C)c(C#N)c3)n2)ccc2c1CCN(C(=O)[C@](C)(N)CO)C2 [Example 85, 2-[(1-methylethyl)oxy]-5-{3-[5-methyl-2-(2-methyl-D-seryl)-1,2,3,4-tetrahydro-6-isoquinolinyl]-1,2,4-oxadiazol-5-yl}benzonitrile] cannot be ordered by EC50: no more than 1000 nM for the first, no more than 100 nM for the second.

Cc1c(-c2noc(-c3ccc(OC(C)C)c(C#N)c3)n2)ccc2c1CCN(C(CO)CO)C2 [Example 66, 5-(3-{2-[2-hydroxy-1-(hydroxymethyl)ethyl]-5-methyl-1,2,3,4-tetrahydro-6-isoquinolinyl}-1,2,4-oxadiazol-5-yl)-2-[(1-methylethyl)oxy]benzonitrile hydrochloride] and CC(C)Oc1ncc(-c2nc(-c3ccc4c(c3)CCN(C(CO)CO)CC4)no2)cc1C#N [Example 95, 5-(3-{3-[2-hydroxy-1-(hydroxymethyl)ethyl]-2,3,4,5-tetrahydro-1H-3-benzazepin-7-yl}-1,2,4-oxadiazol-5-yl)-2-[(1-methylethyl)oxy]-3-pyridinecarbonitrile] cannot be ordered by EC50: no more than 100 nM for the first, no more than 10 nM for the second.

CC(C)Oc1ccc(-c2nc(-c3ccc4c(c3)CCN(C(=O)[C@](C)(N)CO)CC4)no2)cc1C#N [Example 84, 2-[(1-methylethyl)oxy]-5-{3-[3-(2-methyl-D-seryl)-2,3,4,5-tetrahydro-1H-3-benzazepin-7-yl]-1,2,4-oxadiazol-5-yl}benzonitrile] and CC(C)Oc1ccc(-c2nc(-c3ccc4c(c3)CCN(C(=O)CN[C@H](C)CO)CC4)no2)cc1C#N [Example 98, 5-[3-(3-{N-(1R)-2-hydroxy-1-methylethyl]glycyl}-2,3,4,5-tetrahydro-1H-3-benzazepin-7-yl)-1,2,4-oxadiazol-5-yl]-2-[(1-methylethyl)oxy]benzonitrile hydrochloride] cannot be ordered by EC50: no more than 1000 nM for the first, no more than 10 nM for the second.

CC(C)Oc1ccc(-c2nc(-c3ccc4c(c3)CCN(C(=O)CNCCO)CC4)no2)cc1C#N [Example 86, 5-(3-{3-[N-(2-hydroxyethyl)glycyl]-2,3,4,5-tetrahydro-1H-3-benzazepin-7-yl}-1,2,4-oxadiazol-5-yl)-2-[(1-methylethyl)oxy]benzonitrile hydrochloride] and CC(C)Oc1ccc(-c2nc(-c3ccc4c(c3)CCN(C(=O)CN[C@@H](C)CO)CC4)no2)cc1C#N [Example 99, 5-[3-(3-{N-[(1S)-2-hydroxy-1-methylethyl]glycyl}-2,3,4,5-tetrahydro-1H-3-benzazepin-7-yl)-1,2,4-oxadiazol-5-yl]-2-[(1-methylethyl)oxy]benzonitrile hydrochloride] cannot be ordered by EC50: no more than 100 nM for the first, no more than 10 nM for the second.

CC(C)Oc1ccc(-c2nc(-c3ccc4c(c3)CCN(C(=O)CN3CCOCC3)CC4)no2)cc1C#N [Example 91, 2-[(1-methylethyl)oxy]-5-{3-[3-(4-morpholinylacetyl)-2,3,4,5-tetrahydro-1H-3-benzazepin-7-yl]-1,2,4-oxadiazol-5-yl}benzonitrile hydrochloride] and CC(=O)NCCN1CCc2ccc(-c3noc(-c4ccc(OC(C)C)c(C#N)c4)n3)cc2CC1 [Example 101, N-{2-[7-(5-{3-cyano-4-[(1-methylethyl)oxy]phenyl}-1,2,4-oxadiazol-3-yl)-1,2,4,5-tetrahydro-3H-3-benzazepin-3-yl]ethyl}acetamide] cannot be ordered by EC50: no more than 1000 nM for the first, no more than 10 nM for the second.

N#Cc1cc(-c2nc(-c3ccc4c(c3)CCN(C(=O)CN)CC4)no2)ccc1N1CC(F)C1 [Example 94, 2-(3-fluoro-1-azetidinyl)-5-[3-(3-glycyl-2,3,4,5-tetrahydro-1H-3-benzazepin-7-yl)-1,2,4-oxadiazol-5-yl]benzonitrile] and COC(=O)NCCCN1CCc2ccc(-c3noc(-c4ccc(OC(C)C)c(C#N)c4)n3)cc2CC1 [Example 102, methyl {3-[7-(5-{3-cyano-4-[(1-methylethyl)oxy]phenyl}-1,2,4-oxadiazol-3-yl)-1,2,4,5-tetrahydro-3H-3-benzazepin-3-yl]propyl}carbamate] cannot be ordered by EC50: no more than 1000 nM for the first, no more than 1000 nM for the second.

In the case of CC(C)Oc1ncc(-c2nc(-c3ccc4c(c3)CCN(C[C@H](O)CO)CC4)no2)cc1C#N [Example 96, 5-(3-{3-[(2S)-2,3-dihydroxypropyl]-2,3,4,5-tetrahydro-1H-3-benzazepin-7-yl}-1,2,4-oxadiazol-5-yl)-2-[(1-methylethyl)oxy]-3-pyridinecarbonitrile], the EC50 is reported as no more than 10 nM.

From patent US20120101083A1, “S1P1 AGONISTS COMPRISING A BICYCLIC N-CONTAINING RING” (GLAXO GROUP LIMITED, priority 2009, published 2012)
